Measurements published in patent US20210205329A1 (The University of North Carolina at Chapel Hill, priority 2018, published 2021).

Tested on: RAW264.7 cells
Experiment: Non-activated RAW264.7 cells in the absence of LPS (immunoblotting)
Assay type: cell-based, mouse
Conditions: 1 μM, 24 hrs
Method: FIGS. 3A and 3B depict neurosteroids targeting the activated TLR4 signal by inhibiting TLR4/MD-2 binding. (FIG. 3A) 3α,5α-THP and pregnenolone specifically target the activated TLR4 signal. RAW264.7 cells untreated (CTL) or treated with 3α,5α-THP (THP; 1 μM) or pregnenolone (Preg; 1 μM) were harvested after 24 hrs. […] (FIG. 3B) Neurosteroids inhibit TLR4 signal activation in RAW264.7 ceils by blocking TLR4/MD-2 binding. RAW246.7 cells were treated with IPS (1 μg/ml) without or with 3α,5α-THP (THP; 1.0 μM) or pregnenolone (Preg; 1.0 μM) and protein extracts collected at 24 hrs post-treatment were immunoprecipitated (IP) with antibody to TLR4 or TLR2. The precipitates were immunoblotted (IB) with MD-2 antibody. Normal IgG was used as control. MD-2 co-precipitated with TLR4, but not normal IgG. […] HMGB1 co-precipitated with both TLR4 and TLR2 and its levels were not altered by the neurosteroids.
Immunoblotting. […] The total protein was determined by the bicinchoninic acid assay (BCA, Thermo Fisher Scientific, Waltham, Mass., USA, Cat. #23228 and Cat. #1859078). […] Quantitation was by densitometric scanning with a Bio-Rad GS-700 imaging densitometer. […] Each densitometric measurement was divided by the corresponding β-Actin densitometric measurement and the results [n=5/group] are expressed as the mean β-Actin-adjusted densitometric units±SEM. […]

SMILES | expression of pTAK1, TRAF6, and MCP1 in non-activated cells
CC(=O)[C@H]1CC[C@H]2[C@@H]3CC[C@H]4C[C@H](O)CC[C@]4(C)[C@H]3CC[C@]12C [3α,5α-THP, (3α,5α)3-hydroxypregnan-20-one] | failed to inhibit
CC(=O)[C@H]1CC[C@H]2[C@@H]3CC=C4C[C@@H](O)CC[C@]4(C)[C@H]3CC[C@]12C [pregnenolone] | failed to inhibit
